Laboratory results reported in patent US10442813B2, “Polymorphs of rucaparib camsylate and methods of making same” (RK Pharma Solutions LLC, priority 2018, dated 2019).
Counter-ions that a name gives are not always drawn. Like-named read-outs stand apart in the source and are kept apart here.

Test: Solubility of rucaparib camsylate Form beta in USP standard buffers adjusted to different pHs, 37° C.
Type: physicochemical
Protocol: The solubility of rucaparib camsylate Form beta was investigated in USP standard buffers adjusted to different pHs. For pH 1.2, the buffer solution included 3.73 g of potassium chloride dissolved in 100 ml of water which was mixed with […] of 0.2 M hydrochloric acid. Water was added to bring the volume to 1000 ml. For pH 4.5, the buffer solution included 2.99 g of sodium acetate dissolved in 100 ml of water which was mixed with 14 ml of 2 N acetic acid. Water was added to bring the volume to 1000 ml. For pH 6.0, the buffer preparation included 6.80 g of potassium phosphate dissolved in 100 ml of water which was mixed with 28 ml of 0.2 M sodium hydroxide. Water was added to bring the volume to 1000 ml. For pH 6.8, the buffer preparation included 6.80 g of potassium phosphate dissolved in 100 ml of water, which was mixed with 112 ml of 0.2 M sodium hydroxide. Water was added to volume of 1000 ml. For pH 8.0, the buffer preparation included 3.09 of boric acid and 3.73 g of potassium chloride dissolved in 100 ml of water, which was mixed with 19.5 ml of 0.2 sodium hydroxide. Water was added to bring volume to 1000 ml.

## CNCc1ccc(-c2[nH]c3cc(F)cc4c3c2CCNC4=O)cc1 [Rucaparib Form beta, 8-fluoro-2-{4-[(methylamino)methyl]phenyl}-1,3,4,5-tetrahydro-6H-azepino[5,4,3-cd]indol-6-one ((1S,4R)-7,7dimethyl-2-oxobicyclo[2.2.1]hept-1-yl)methanesulfonic acid salt]
USP buffer pH 8.0, 37° C.
  solubility: Very slightly soluble
USP buffer pH 8.0, 37° C., listed as rucaparib camsylate Form beta
  solubility: slightly soluble
USP standard buffer pH 1.2, simulated gastric fluid, thermodynamic from solid, USP buffer pH 1.2, 37° C., read-out: Solubility
  solubility: < 100 µg/mL
USP standard buffer pH 4.5, aqueous buffer, thermodynamic from solid, USP buffer pH 4.5, 37° C., read-out: Solubility
  solubility: < 100 µg/mL
USP standard buffer pH 6.0, aqueous buffer, thermodynamic from solid, USP buffer pH 6.0, 37° C., read-out: Solubility
  solubility: < 100 µg/mL
USP standard buffer pH 6.8, aqueous buffer, thermodynamic from solid, USP buffer pH 6.8, 37° C., read-out: Solubility
  solubility: < 100 µg/mL
Most pH values (all tested except pH 8)
  solubility: practically insoluble
Thermodynamic from solid, Water, 37° C., read-out: Solubility
  solubility: < 100 µg/mL
